Source: the supplement of paper PMC10307832

Experiments:
Assay in all cases: relative viability (nuclei count vs DMSO), 5 days (fraction); higher = more cells survive
Cediranib + OSI-027 = compound: COc1cc2c(Oc3ccc4[nH]c(C)cc4c3F)ncnc2cc1OCCCN1CCCC1 [Cediranib] + COc1cccc2cc(-c3nc([C@H]4CC[C@H](C(=O)O)CC4)n4ncnc(N)c34)[nH]c12 [OSI-027] (partner 0.5 µM)
Summary of the method: (§1)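 A single step with final 0.05% Triton X-100, 1% formaldehyde and 1 ug/ml Hoechst fixed the cells and stained nuclei 5 days after treatment. Lung cancer cell lines in 1536-well plates had been treated by pin tool the day after seeding with one drug alone or a fixed anchor-drug dose plus five library-drug doses (not always all listed) in √10 steps, and nuclei were counted on 4× images. Relative viability is the ratio of nuclei in treated wells to nuclei in vehicle wells, taken as the median of duplicate plates.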

Decitabine + Foretinib = compound: Nc1ncn([C@H]2C[C@H](O)[C@@H](CO)O2)c(=O)n1 [Decitabine] + COc1cc2c(Oc3ccc(NC(=O)C4(C(=O)Nc5ccc(F)cc5)CC4)cc3F)ccnc2cc1OCCCN1CCOCC1 [Foretinib] (partner 0.25 µM)
Summary of the method: as §1

Decitabine + Vorinostat = compound: Nc1ncn([C@H]2C[C@H](O)[C@@H](CO)O2)c(=O)n1 [Decitabine] + O=C(CCCCCCC(=O)Nc1ccccc1)NO [Vorinostat] (partner 1 µM)
Summary of the method: as §1

[1] = compound: O=C(C[C@H]1NCCC[C@@H]1O)Cn1cnc2cc(Br)c(Cl)cc2c1=O (racemic) [Halofuginone] + Nc1ncn([C@H]2C[C@H](O)[C@@H](CO)O2)c(=O)n1 [Decitabine] (partner 2 µM)
Summary of the method: as §1

Cell Line | relative viability (Cediranib + OSI-027; first compound 0.04 µM) | relative viability (Cediranib + OSI-027; first compound 0.1265 µM) | relative viability (Cediranib + OSI-027; first compound 0.4 µM) | relative viability (Cediranib + OSI-027; first compound 1.265 µM) | relative viability (Cediranib + OSI-027; first compound 4 µM) | relative viability (Decitabine + Foretinib; first compound 0.04 µM) | relative viability (Decitabine + Foretinib; first compound 0.1265 µM) | relative viability (Decitabine + Foretinib; first compound 0.4 µM) | relative viability (Decitabine + Foretinib; first compound 1.265 µM) | relative viability (Decitabine + Foretinib; first compound 4 µM) | relative viability (Decitabine + Vorinostat; first compound 0.04 µM) | relative viability (Decitabine + Vorinostat; first compound 0.1265 µM) | relative viability (Decitabine + Vorinostat; first compound 0.4 µM) | relative viability (Decitabine + Vorinostat; first compound 1.265 µM) | relative viability (Decitabine + Vorinostat; first compound 4 µM) | relative viability ([1]; first compound 0.001 µM) | relative viability ([1]; first compound 0.003162 µM) | relative viability ([1]; first compound 0.01 µM) | relative viability ([1]; first compound 0.03162 µM) | relative viability ([1]; first compound 0.1 µM)
NCI-H1734 | 0.517 | 0.705 | 0.583 | 0.515 | 0.64 | 0.765 | 0.685 | 0.651 | 0.474 | 0.339 | 0.698 | 0.685 | 0.48 | 0.297 | 0.306 | 0.542 | 0.508 | 0.522 | 0.491 | 0.293
NCI-H1755 | 0.601 | 0.565 | 0.689 | 0.694 | 0.81 | 0.889 | 0.886 | 0.804 | 0.565 | 0.447 | 0.637 | 0.608 | 0.611 | 0.403 | 0.429 | 0.693 | 0.699 | 0.726 | 0.746 | 0.748
NCI-H1793 | 0.271 | 0.276 | 0.245 | – | 0.301 | 0.631 | 0.641 | 0.533 | 0.351 | 0.406 | 0.462 | 0.631 | 0.552 | 0.382 | 0.325 | 0.511 | 0.6 | 0.505 | 0.5 | 0.21
NCI-H1915 | 0.559 | 0.516 | 0.566 | 0.624 | 0.669 | 0.534 | 0.396 | 0.326 | 0.314 | 0.326 | 0.263 | 0.235 | 0.206 | 0.158 | 0.155 | 0.25 | 0.265 | 0.257 | 0.274 | 0.253
NCI-H1944 | 0.382 | 0.513 | 0.422 | 0.39 | 0.429 | 0.766 | 0.752 | 0.567 | 0.444 | 0.396 | 0.505 | 0.486 | 0.424 | 0.265 | 0.299 | 0.4 | 0.435 | 0.396 | 0.407 | 0.451
NCI-H1975 | 0.691 | 0.773 | 0.686 | 0.638 | 0.801 | 0.63 | 0.546 | 0.265 | 0.317 | 0.31 | 0.508 | 0.412 | 0.375 | 0.281 | 0.291 | 0.4 | 0.408 | 0.436 | 0.385 | 0.285
NCI-H1993 | 0.421 | 0.579 | 0.548 | 0.506 | 0.545 | 0.746 | 0.693 | 0.824 | 0.742 | 0.771 | 0.628 | 0.737 | 0.614 | 0.399 | 0.487 | 0.636 | 0.635 | 0.52 | 0.565 | 0.443
NCI-H2009 | 0.548 | 0.538 | 0.658 | 0.518 | 0.639 | 1.21 | 0.808 | 0.627 | 0.494 | 0.438 | 0.474 | 0.446 | 0.356 | 0.285 | 0.335 | 0.343 | 0.332 | 0.403 | 0.415 | 0.308
